In patent publication US20100210611A1, “COMBINATION THERAPY” (priority 2007, published 2010):
Several values for one entry are separate records, joined by “and”; a condition that tells them apart may be missing. Identical values can stand only once.

Experiments:
[1] = test system: Ascaris challenge in allergic sheep; assay: Allergic sheep model: EAR, LAR and AHR response to Ascaris challenge; type: in vivo; settings: for AHR (%) inhibition / EAR (%) Inhibition / LAR (%) inhibition: single dose 30 minutes before Ascaris challenge
Method: The allergic sheep model was used to test the effect of inhaled montelukast acid against early asthmatic response (EAR), late asthmatic response (LAR) and airway hyper-reactivity (AHR) response to Ascaris challenge in allergic sheep. The compound was administered directly into the lungs using the Spinhaler DPI that was attached directly to an indwelling endotracheal tube. Capsules used in the Spinhaler contained a micronized blend of 20% drug/80% lactose, corresponding to approx. 5 mg of the active compound. The compound was administered as a single dose 30 minutes before Ascaris challenge. To optimize delivery, each Spinhaler actuation was synchronized with a series of aspiratory cycles.
Doses for inhalation were selected based on total IV doses administered in sheep studies that had been conducted. Administration of 3 or 9 capsules should achieve a total inhaled dose of approximately 0.1 mg/kg and 0.3 mg/kg, respectively. The purported dose delivered is an estimate based on an experimentally determined fine particle fraction efficiency of 30%. Plasma drug levels were measured at various time points throughout the study.
Initial experiments (n=2) were performed with 0.1 mg/kg of montelukast acid. […] The second set of experiments (n=4) was performed with 0.3 mg/kg of montelukast acid.

[2] = Dose uniformity, Dosage Unit Sampling Apparatus (DUSA), USP <601>; type: physicochemical; settings: Spinhaler; for Total recovered / amount in Device + Capsule: listed as MON; for amount in Device + Capsule: nominal 1000 μg MON, 400 μg MOM
Method: Dose uniformity was determined using Apparatus B (Dosage Unit Sampling Apparatus—DUSA) at a flow rate of 100 L/min (test described in United States Pharmacopoeia (USP) 27 Chapter <601>). The USP recommends selecting a flow rate that creates a pressure drop of 4 kPa across the inhaler. With the Spinhaler, a 4 kPa pressure drop could not be achieved even at the maximum flow rate of 100 L/min. Based on the recommendations of Byron, et al., a flow rate of 100 L/min was selected since the Spinhaler is a low resistance device. See Michael Hindle and Peter R. Byron, “Dose emissions from marketed dry powder inhalers”, International Journal of Pharmaceutics 116 (1995) 169-177. The test was run for 2.4 seconds in order to pull 4 L of air. After a shot had been delivered, all pieces of the DUSA including the mouthpiece adapter were rinsed with solvent. To determine the amount of drug retained in the inhaler, all pieces of the inhaler were rinsed with solvent including the interior of the capsule. The samples were then assayed using the UV-Vis spectrophotometer.
Shot weight was obtained by measuring the weight loss due to the actuation of the device. The device was tared, a “shot” was wasted in the DUSA and the device was re-weighed to obtain the delivered shot weight. Dose and shot weight were deemed acceptable if they were within 75% to 125% of the theoretical values (USP <601>).
(§1) Dose Uniformity (DU) was performed according to USP Chapter <601> by using DUSA Apparatus B with the Spinhaler® device which is analogous to that described in section Dose Uniformity for Example 1. However, the HPLC was used to analyze the content of the drugs as described in the Blend Uniformity in this example.
as §1, with “Uniformity” for “Uniformity (DU)”, “device and in a manner” for “device which is”, “Uniformity in” for “Uniformity for”, “Example 4, except” for “Example 1. However,”

[3] = Aerodynamic particle size distribution, Andersen cascade impaction (ACI); type: physicochemical; settings: Spinhaler; for MMAD: cutoff diameter based on airflow rate of 28.3 L/min; for amount in ACI: including mouthpiece adapter
Description: The Andersen cascade impaction (ACI) (Apparatus 3) was the device used to determine the aerodynamic size distribution. The impaction provided in vitro measurements of the fraction of the aerosol that has the potential to reach the alveolar region of the lung. This value is represented by the portion of particles detected below plate 2. The impaction was operated at the flow rate and test time according to the method described in USP <601>. Because the Spinhaler® is a low resistance device, it is difficult to achieve a pressure drop of 4 kPa, an adjustment of the air flow rate at the intake of the flow control was performed, as discussed above. Each impaction plate was coated with silicone grease (316 Dow Corning) to prevent particles from bouncing off the plates and returning to the air stream. All stages were used since the test flow rate was less than 60 L/min. All pieces of the impaction including the inhaler and capsule were rinsed with solvent, diluted to suitable volumes, sonicated, centrifuged and assayed using the UV-VIS spectrophotometer. The respirable portion was quantified by the in vitro fine particle fraction and fine particle mass. Dose uniformity and cascade impaction tests were carried out at controlled temperature (20-25° C.) and humidity (50% RH). […]
Aerodynamic size distribution was performed according to USP Chapter <601> by using ACI Apparatus 3 with the Spinhaler® device analogous to that described in section Aerodynamic Particle Size Distribution for Example 1. However, the HPLC was used to analyze the content of the drugs as described in the Blend Uniformity in this example.
Aerodynamic size distribution was performed according to USP Chapter <601> by using ACI Apparatus 3 with the Spinhaler® device in a manner analogous to that described in section Aerodynamic Particle Size Distribution in Example 4. The content of the drugs were analyzed as described in the Blend Uniformity in this example.

[4] = Approx. 0.1 mg/kg (3 capsules) inhaled via Spinhaler, n=2
[5] = Approx. 0.3 mg/kg (9 capsules) inhaled via Spinhaler, n=4
[6] = Example 4 blend, flow 61.5 L/min for 3.9 sec
[7] = Example 4 blend, flow 62.3 L/min for 3.9 sec
[8] = Example 4 blend, flow 62.8 L/min for 3.8 sec
[9] = Example 4 blend, blend with mometasone furoate
[10] = Example 5 blend, blend with ciclesonide

In the case of CC(C)(O)c1ccccc1CC[C@@H](SCC1(CC(=O)O)CC1)c1cccc(/C=C/c2ccc3ccc(Cl)cc3n2)c1 [Montelukast Acid, montelukast acid], the “inhibition of EAR, LAR and AHR (in words)” value ([1]; 0.1 mg/kg inhaled, n=2) is reported as “partial inhibition of the LAR and AHR but not the EAR”, the “inhibition of EAR, LAR and AHR (in words)” value ([1]; 0.3 mg/kg inhaled, n=4) is reported as “Marked inhibition of all three phases of the response” and the “AHR (%) inhibition” value [1, 4] is reported as 60%. For the same compound, the “EAR (%) Inhibition” value [1, 4] was 7%, the “LAR (%) inhibition” value [1, 4] was 42% and the “AHR (%) inhibition” value [1, 5] was 76%. For the same compound, the “EAR (%) Inhibition” value [1, 5] was 47%, the “LAR (%) inhibition” value [1, 5] was 79% and the “DU based on nominal dose, % (Device + Capsule)” value ([2]; Example 4 blend) was “*46.6%”. For the same compound, the “DU based on nominal dose, % (printed in Adapter + Filter column)” value ([2]; Example 4 blend) was 49.3%, the “DU based on total recovered, % (Device + Capsule)” value ([2]; Example 4 blend) was “**48.6%” and the “DU based on total recovered, % (printed in Adapter + Filter column)” value ([2]; Example 4 blend) was 51.4%. The “Total recovered” value [2, 6] was 952.06 µg and 949.00 µg and 958.48 µg, the “Total recovered” value [2, 7] was 983.22 µg and 979.15 µg and the “Total recovered” value [2, 8] was 937.91 µg and 949.52 µg. For the same compound, the “amount in Device + Capsule” value [2, 6] was 465.70 µg and 463.98 µg and 465.53 µg, the “amount in Device + Capsule” value [2, 7] was 462.40 µg and 459.39 µg and the “amount in Device + Capsule” value [2, 8] was 468.24 µg and 473.48 µg. For the same compound, the “DU based on nominal dose, % (Device + Capsule)” value ([2]; Example 5 blend) was “*44.5%”, the “DU based on nominal dose, % (printed in Adapter + Filter column)” value ([2]; Example 5 blend) was 47.8% and the “DU based on total recovered, % (Device + Capsule)” value ([2]; Example 5 blend) was “**48.2%”. The “DU based on total recovered, % (printed in Adapter + Filter column)” value ([2]; Example 5 blend) was 51.8%, the FPF ([3]; Example 4 blend) was 29% and the FPD [3, 9] was 126.1 µg and 145.7 µg and 118.7 µg. The FPF [3, 9] was 28.6% and 28.4% and 29.9%, the GSD [3, 9] was 2.1 and 1.4 and the Total recovered [3, 9] was 953 µg and 962 µg and 921 µg. For the same compound, the amount in inhaler [3, 9] was 512 µg and 450 µg and 524 µg, the MMAD ([3]; Example 4 blend) was 4.5 μm and the MMAD [3, 9] was 4.6 μm and 4.4 μm. The MMAD ([3]; Example 4 blend, mean) was 4.5 μm, the “amount in ACI” value [3, 9] was 441 µg and 513 µg and 397 µg and the “amount in ACI” value ([3]; Example 4 blend, mean) was 450 µg. For the same compound, the FPD ([3]; Example 4 blend, mean) was 130.2 µg, the FPF ([3]; Example 4 blend, mean) was 29.0% and the GSD ([3]; Example 4 blend, mean) was 1.6. The Total recovered ([3]; Example 4 blend, mean) was 945 µg, the amount in inhaler ([3]; Example 4 blend, mean) was 495 µg and the FPF ([3]; Example 5 blend) was 38%. The FPD [3, 10] was 161.8 µg and 190.6 µg and 179.0 µg, the FPF [3, 10] was 35.2% and 40.7% and the GSD [3, 10] was 1.5 and 2.0. The Total recovered [3, 10] was 990 µg and 882 µg and 904 µg, the amount in inhaler [3, 10] was 530 µg and 413 µg and 431 µg and the MMAD ([3]; Example 5 blend) was 3.9 μm. The MMAD [3, 10] was 3.9 μm and 4.0 μm and 3.8 μm, the “amount in ACI” value [3, 10] was 459 µg and 468 µg and 472 µg and the “amount in ACI” value ([3]; Example 5 blend, mean) was 467 µg. For the same compound, the FPD ([3]; Example 5 blend, mean) was 177.1 µg, the FPF ([3]; Example 5 blend, mean) was 37.9% and the GSD ([3]; Example 5 blend, mean) was 1.7. It also gave a Total recovered ([3]; Example 5 blend, mean) of 925 µg and an amount in inhaler ([3]; Example 5 blend, mean) of 458 µg.
